According to patent publication US20230398130A1, “METHODS AND COMPOSITIONS FOR DIFFERENTIATING STEM CELLS” (Massachusetts Institute of Technology, priority 2020, published 2023):

Key:
[1] = system: ISC-enriched organoids; experiment: Primary screen, 384-well 2.5-D organoid differentiation (ENR+CD, 6 days, Target Selective Inhibitor Library, vs whole-plate median): ATP (CellTiter-Glo 3D, CTG); details: for Dose.FC.CTG / Z.CTG: primary screen; for Dose.FC.CTG: ENR+CD 6 days, FC vs plate median; for Z.CTG: standard z score of FC
[2] = system: ISC-enriched organoids; experiment: Primary screen, 384-well 2.5-D organoid differentiation (ENR+CD, 6 days): carbachol-induced lysozyme secretion (LYZ.S); format: cell-based, murine; details: for Dose.FC.LYZ.S: primary screen, ENR+CD 6 days, FC vs plate median
Excerpt: (§1) High-throughput screening.

[3] = system: ISC-enriched organoids; experiment: Primary screen, 384-well 2.5-D organoid differentiation (ENR+CD, 6 days): basal lysozyme secretion (LYZ.NS); format: cell-based, murine; details: for Dose.FC.LYZ.NS / Z.LYZ.NS: primary screen; for Dose.FC.LYZ.NS: ENR+CD 6 days, FC vs plate median; for Z.LYZ.NS: standard z score of FC
Excerpt: as §1

[4] = dose 0.08 uM (1st of 4 lines per treatment; dose not printed in this part)
[5] = dose 0.40 uM (2nd of 4 lines per treatment; dose not printed in this part)
[6] = dose 2.00 uM (3rd of 4 lines per treatment; dose not printed in this part)
[7] = dose 10.00 uM (4th of 4 lines per treatment; dose not printed in this part)

Row | Structure (SMILES) | SSMD.CTG_Rep (strictly standardized mean difference) [1, 4] | SSMD.CTG_Rep (strictly standardized mean difference) [1, 5] | SSMD.CTG_Rep (strictly standardized mean difference) [1, 6] | SSMD.CTG_Rep (strictly standardized mean difference) [1, 7] | Dose.FC.CTG ([1]; dose 0.08 uM) | Z.CTG ([1]; dose 0.08 uM) | Dose.FC.CTG ([1]; dose 0.40 uM) | Z.CTG ([1]; dose 0.40 uM) | Dose.FC.CTG ([1]; dose 2.00 uM) | Z.CTG ([1]; dose 2.00 uM) | Dose.FC.CTG ([1]; dose 10.00 uM) | Z.CTG ([1]; dose 10.00 uM) | SSMD.LYZ.S_Rep (strictly standardized mean difference) [2, 4] | Z.LYZ.S (standard z score) [2, 4] | SSMD.LYZ.S_Rep (strictly standardized mean difference) [2, 5] | Z.LYZ.S (standard z score) [2, 5] | SSMD.LYZ.S_Rep (strictly standardized mean difference) [2, 6] | Z.LYZ.S (standard z score) [2, 6] | SSMD.LYZ.S_Rep (strictly standardized mean difference) [2, 7] | Z.LYZ.S (standard z score) [2, 7] | also measured
1 | C[C@H](Oc1cc(-c2cnn(C3CCNCC3)c2)cnc1N)c1c(Cl)ccc(F)c1Cl [(S)-crizotinib] | 0.742 | 0.190 | 0.285 | 0.034 | 0.241 log 2 fold change | 0.575 | 0.054 log 2 fold change | 0.130 | 0.111 log 2 fold change | 0.266 | 0.019 log 2 fold change | 0.046 | 0.881 | 0.808 | 0.084 | 0.103 | −0.343 | −0.383 | −0.491 | −0.720 | Dose.FC.LYZ.S ([2]; dose 0.08 uM): 0.125 log 2 fold change; Dose.FC.LYZ.S ([2]; dose 0.40 uM): 0.016 log 2 fold change; Dose.FC.LYZ.S ([2]; dose 2.00 uM): −0.059 log 2 fold change; Dose.FC.LYZ.S ([2]; dose 10.00 uM): −0.111 log 2 fold change; SSMD.LYZ.NS_Rep (strictly standardized mean difference) [3, 4]: 0.838; SSMD.LYZ.NS_Rep (strictly standardized mean difference) [3, 5]: 0.094; SSMD.LYZ.NS_Rep (strictly standardized mean difference) [3, 6]: −0.229; SSMD.LYZ.NS_Rep (strictly standardized mean difference) [3, 7]: −0.438; Dose.FC.LYZ.NS ([3]; dose 0.08 uM): 0.193 log 2 fold change; Z.LYZ.NS ([3]; dose 0.08 uM): 1.679; Dose.FC.LYZ.NS ([3]; dose 0.40 uM): 0.009 log 2 fold change; Z.LYZ.NS ([3]; dose 0.40 uM): 0.081; Dose.FC.LYZ.NS ([3]; dose 2.00 uM): −0.034 log 2 fold change; Z.LYZ.NS ([3]; dose 2.00 uM): −0.294; Dose.FC.LYZ.NS ([3]; dose 10.00 uM): −0.068 log 2 fold change; Z.LYZ.NS ([3]; dose 10.00 uM): −0.588
2 | C=C1C(=O)O[C@H]2[C@H]1CC/C(C)=C/CC[C@@]1(C)O[C@@H]21 [(−)-Parthenolide] | 0.498 | 0.736 | 0.482 | 0.257 | 0.135 log 2 fold change | 0.322 | 0.228 log 2 fold change | 0.544 | 0.157 log 2 fold change | 0.376 | 0.157 log 2 fold change | 0.374 | 0.679 | 0.799 | 0.763 | 1.067 | 0.506 | 0.441 | 0.345 | 0.530 | Dose.FC.LYZ.S ([2]; dose 0.08 uM): 0.124 log 2 fold change; Dose.FC.LYZ.S ([2]; dose 0.40 uM): 0.165 log 2 fold change; Dose.FC.LYZ.S ([2]; dose 2.00 uM): 0.068 log 2 fold change; Dose.FC.LYZ.S ([2]; dose 10.00 uM): 0.082 log 2 fold change; SSMD.LYZ.NS_Rep (strictly standardized mean difference) [3, 4]: 0.601; SSMD.LYZ.NS_Rep (strictly standardized mean difference) [3, 5]: 0.480; SSMD.LYZ.NS_Rep (strictly standardized mean difference) [3, 6]: 0.920; SSMD.LYZ.NS_Rep (strictly standardized mean difference) [3, 7]: 0.998; Dose.FC.LYZ.NS ([3]; dose 0.08 uM): 0.058 log 2 fold change; Z.LYZ.NS ([3]; dose 0.08 uM): 0.506; Dose.FC.LYZ.NS ([3]; dose 0.40 uM): 0.067 log 2 fold change; Z.LYZ.NS ([3]; dose 0.40 uM): 0.583; Dose.FC.LYZ.NS ([3]; dose 2.00 uM): 0.089 log 2 fold change; Z.LYZ.NS ([3]; dose 2.00 uM): 0.776; Dose.FC.LYZ.NS ([3]; dose 10.00 uM): 0.133 log 2 fold change; Z.LYZ.NS ([3]; dose 10.00 uM): 1.159
3 | N#Cc1c(O)c2c(-c3ccc(-c4ccccc4O)cc3)csc2[nH]c1=O [A-769662] | −0.255 | 0.019 | −0.312 | −0.056 | −0.074 log 2 fold change | −0.177 | 0.007 log 2 fold change | 0.016 | −0.127 log 2 fold change | −0.304 | −0.015 log 2 fold change | −0.036 | 0.365 | 0.426 | 0.472 | 0.460 | 0.488 | 1.191 | 0.119 | 0.121 | Dose.FC.LYZ.S ([2]; dose 0.08 uM): 0.066 log 2 fold change; Dose.FC.LYZ.S ([2]; dose 0.40 uM): 0.071 log 2 fold change; Dose.FC.LYZ.S ([2]; dose 2.00 uM): 0.184 log 2 fold change; Dose.FC.LYZ.S ([2]; dose 10.00 uM): 0.019 log 2 fold change; SSMD.LYZ.NS_Rep (strictly standardized mean difference) [3, 4]: 0.286; SSMD.LYZ.NS_Rep (strictly standardized mean difference) [3, 5]: 0.498; SSMD.LYZ.NS_Rep (strictly standardized mean difference) [3, 6]: 0.554; SSMD.LYZ.NS_Rep (strictly standardized mean difference) [3, 7]: 0.068; Dose.FC.LYZ.NS ([3]; dose 0.08 uM): 0.045 log 2 fold change; Z.LYZ.NS ([3]; dose 0.08 uM): 0.394; Dose.FC.LYZ.NS ([3]; dose 0.40 uM): 0.069 log 2 fold change; Z.LYZ.NS ([3]; dose 0.40 uM): 0.599; Dose.FC.LYZ.NS ([3]; dose 2.00 uM): 0.054 log 2 fold change; Z.LYZ.NS ([3]; dose 2.00 uM): 0.473; Dose.FC.LYZ.NS ([3]; dose 10.00 uM): 0.009 log 2 fold change; Z.LYZ.NS ([3]; dose 10.00 uM): 0.075
4 | CC1(C)CCC(CN2CCN(c3ccc(C(=O)NS(=O)(=O)c4ccc(NCC5CCOCC5)c([N+](=O)[O-])c4)c(Oc4cnc5[nH]ccc5c4)c3)CC2)=C(c2ccc(Cl)cc2)C1 [ABT-199 (GDC-0199)] | 0.051 | 0.111 | −0.377 | −1.402 | 0.019 log 2 fold change | 0.045 | 0.038 log 2 fold change | 0.090 | −0.278 log 2 fold change | −0.665 | −0.519 log 2 fold change | −1.240 | −0.260 | −0.285 | 0.443 | 0.494 | −0.368 | −0.404 | −1.131 | −1.890 | Dose.FC.LYZ.S ([2]; dose 0.08 uM): −0.044 log 2 fold change; Dose.FC.LYZ.S ([2]; dose 0.40 uM): 0.076 log 2 fold change; Dose.FC.LYZ.S ([2]; dose 2.00 uM): −0.063 log 2 fold change; Dose.FC.LYZ.S ([2]; dose 10.00 uM): −0.292 log 2 fold change; SSMD.LYZ.NS_Rep (strictly standardized mean difference) [3, 4]: −0.009; SSMD.LYZ.NS_Rep (strictly standardized mean difference) [3, 5]: −0.192; SSMD.LYZ.NS_Rep (strictly standardized mean difference) [3, 6]: −0.116; SSMD.LYZ.NS_Rep (strictly standardized mean difference) [3, 7]: −0.810; Dose.FC.LYZ.NS ([3]; dose 0.08 uM): −0.002 log 2 fold change; Z.LYZ.NS ([3]; dose 0.08 uM): −0.013; Dose.FC.LYZ.NS ([3]; dose 0.40 uM): −0.029 log 2 fold change; Z.LYZ.NS ([3]; dose 0.40 uM): −0.251; Dose.FC.LYZ.NS ([3]; dose 2.00 uM): −0.016 log 2 fold change; Z.LYZ.NS ([3]; dose 2.00 uM): −0.136; Dose.FC.LYZ.NS ([3]; dose 10.00 uM): −0.169 log 2 fold change; Z.LYZ.NS ([3]; dose 10.00 uM): −1.471
